Experimental data published in BindingDB's records for patent US20250059188 (Anaxis Pharma, 2025).

Key:
Assay in all cases: In Vitro Assay
[1] = target: T1, Mixed lineage kinase domain-like protein (Homo sapiens, UniProt Q8NB16)
T1 sequence (Q8NB16 whole entry): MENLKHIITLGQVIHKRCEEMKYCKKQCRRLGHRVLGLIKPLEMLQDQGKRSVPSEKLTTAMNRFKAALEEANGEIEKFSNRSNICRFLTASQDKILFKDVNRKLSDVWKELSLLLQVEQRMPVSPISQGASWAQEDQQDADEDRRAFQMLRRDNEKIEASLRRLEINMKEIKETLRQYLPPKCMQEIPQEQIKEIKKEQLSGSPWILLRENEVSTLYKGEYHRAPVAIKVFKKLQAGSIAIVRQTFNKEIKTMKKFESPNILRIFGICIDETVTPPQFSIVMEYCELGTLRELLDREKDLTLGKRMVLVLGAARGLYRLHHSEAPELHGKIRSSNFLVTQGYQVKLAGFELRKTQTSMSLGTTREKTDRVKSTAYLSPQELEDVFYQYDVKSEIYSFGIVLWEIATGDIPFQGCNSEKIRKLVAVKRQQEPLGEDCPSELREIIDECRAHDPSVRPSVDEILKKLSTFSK
Protocol: (§1) For most assays, kinase-tagged T7 phage strains were grown in parallel in 24-well blocks in an E. coli host derived from the BL21 strain. E. coli were grown to log-phase and infected with T7 phage from a frozen stock (multiplicity of infection=0.4) and incubated with shaking at 32° C. until lysis (90-150 minutes). The lysates were centrifuged (6,000×g) and filtered (0.2 μm) to remove cell debris. The remaining kinases were produced in HEK-293 cells and subsequently tagged with DNA for qPCR detection. […] The liganded beads were blocked with excess biotin and washed with blocking buffer (SeaBlock (Pierce), 1% BSA, 0.05% Tween 20, 1 mM DTT) to remove unbound ligand and to reduce non-specific phage binding. […] All reactions were performed in polypropylene 384-well plates in a final volume of 20 μL. […] The kinase concentration in the eluates was measured by qPCR.

[2] = target: T2, Receptor-interacting serine/threonine-protein kinase 1 (Homo sapiens, UniProt Q13546)
T2 sequence (Q13546 whole entry): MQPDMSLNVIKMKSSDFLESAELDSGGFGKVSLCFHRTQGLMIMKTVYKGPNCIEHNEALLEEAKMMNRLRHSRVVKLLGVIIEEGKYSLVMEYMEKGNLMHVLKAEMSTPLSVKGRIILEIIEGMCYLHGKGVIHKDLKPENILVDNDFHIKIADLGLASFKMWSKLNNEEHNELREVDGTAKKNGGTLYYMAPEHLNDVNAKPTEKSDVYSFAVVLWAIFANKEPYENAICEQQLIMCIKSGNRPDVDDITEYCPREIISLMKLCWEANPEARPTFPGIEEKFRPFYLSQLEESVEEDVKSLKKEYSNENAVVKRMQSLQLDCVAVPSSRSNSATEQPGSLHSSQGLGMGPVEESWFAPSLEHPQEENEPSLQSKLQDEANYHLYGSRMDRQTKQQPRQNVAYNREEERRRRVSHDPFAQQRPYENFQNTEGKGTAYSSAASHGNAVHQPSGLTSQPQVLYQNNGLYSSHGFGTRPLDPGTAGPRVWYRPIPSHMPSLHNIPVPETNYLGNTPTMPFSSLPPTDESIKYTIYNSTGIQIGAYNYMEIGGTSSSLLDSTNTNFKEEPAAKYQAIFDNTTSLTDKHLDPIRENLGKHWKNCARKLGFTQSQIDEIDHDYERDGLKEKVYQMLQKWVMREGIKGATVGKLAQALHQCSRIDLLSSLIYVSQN
Protocol: as §1

[3] = target: Receptor-interacting serine/threonine-protein kinase 3 (Homo sapiens, UniProt Q9Y572)
Protocol: as §1

Sequence of Receptor-interacting serine/threonine-protein kinase 3 (Q9Y572 whole entry): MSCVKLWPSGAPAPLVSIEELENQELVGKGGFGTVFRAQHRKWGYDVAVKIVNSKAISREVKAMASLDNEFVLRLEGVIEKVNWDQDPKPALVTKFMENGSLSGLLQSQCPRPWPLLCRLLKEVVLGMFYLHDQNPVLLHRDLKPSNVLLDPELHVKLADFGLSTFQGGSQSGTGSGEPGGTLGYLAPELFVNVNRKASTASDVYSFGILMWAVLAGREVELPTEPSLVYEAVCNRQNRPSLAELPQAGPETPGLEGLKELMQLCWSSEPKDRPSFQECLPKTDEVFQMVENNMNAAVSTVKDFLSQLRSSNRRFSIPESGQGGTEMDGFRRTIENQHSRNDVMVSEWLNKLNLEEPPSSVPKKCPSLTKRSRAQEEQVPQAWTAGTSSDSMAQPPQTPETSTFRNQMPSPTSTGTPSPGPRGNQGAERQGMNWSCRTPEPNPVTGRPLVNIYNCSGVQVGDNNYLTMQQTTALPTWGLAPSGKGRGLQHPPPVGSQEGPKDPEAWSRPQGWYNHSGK

SMILES: Cn1nc(-c2ccc(NS(=O)(=O)C(F)F)c(OCc3ccc(F)cc3)c2)c2c(N)ncc(-c3ccncc3)c21 [US20250059188, Compound 14]
- Kd [1]: < 0.001 µM
- Kd [2]: > 10 µM
- Kd [3]: > 10 µM

SMILES: C[C@H](Oc1cc(C2C=NN3C=CN=C(N)C23)ccc1NS(=O)(=O)C(F)F)c1ccc(F)cc1 (some centres undefined) [US20250059188, Compound 22]
- Kd [1]: < 0.001 µM
- Kd [2]: > 10 µM
- Kd [3]: > 10 µM

SMILES: COc1ccc([C@H](C)Oc2cc(-c3nn(C)c4c(-c5cnn(C6CCOCC6)c5)cnc(N)c34)ccc2NS(=O)(=O)C(F)F)cc1 [US20250059188, Compound 129]
- Kd [1]: < 0.001 µM
- Kd [2]: > 10 µM
- Kd [3]: > 10 µM

SMILES: C[C@H](Oc1cc(-c2nn(C)c3c(-c4cnn(C5CCN(C)C(C(F)F)C5)c4)cnc(N)c23)ccc1NS(=O)(=O)C(F)F)c1ccc(F)cc1 (some centres undefined) [US20250059188, Compound 158]
- Kd [2]: > 10 µM
- Kd [3]: > 10 µM

SMILES: C[C@H](Oc1cc(-c2nn(C)c3c(-c4cnn(C5CCC(N(C)C)C5)c4)cnc(N)c23)ccc1NS(=O)(=O)C(F)F)c1ccc(F)cc1 (some centres undefined) [US20250059188, Compound 168]
- Kd [1]: < 0.001 µM
- Kd [2]: > 10 µM
- Kd [3]: > 10 µM
